Experimental data reported in PMC8162746 (Cancer chemotherapy and pharmacology, 2021).
Where “and” joins values, the source holds several entries; their conditions need not be identical. Identical values can stand only once. Entries after “also recorded” stand apart in the source; their conditions may differ.

Columns and labels:
[1] = test system: xenograft and allograft schwannoma; details: cited from earlier work
[2] = test system: patients with primary CNS and advanced solid tumors; test: Phase I dose-escalation trial of oral AR-42: safety and tolerability; type: in vivo
[3] = 17 patients evaluable for toxicity

In the case of `CC(C)[C@H](C(=O)Nc1ccc(C(=O)NO)cc1)c1ccccc1` [AR-42], the Schwannoma growth [1] is given as “suppressed peripherally implanted xenograft and allograft schwannoma growth”, the Treatment-related deaths ([2]; 17 patients) is given as “no treatment-related deaths” and the “Grade 3 TRAE anemia” value [2, 3] is given as 2 n. For the same compound, the “Grade 3 TRAE anorexia” value [2, 3] was 1 n, the “Grade 3 TRAE hematuria” value [2, 3] was 1 n and the “Grade 3 TRAE hypophosphatemia” value [2, 3] was 3 n. The “Grade 3 TRAE lymphopenia” value [2, 3] was 3 n, the “Grade 3 TRAE nausea” value [2, 3] was 2 n and the “Grade 3 TRAE thrombocytopenia” value [2, 3] was 5 n. For the same compound, the “Grade 3 TRAE venous thromboembolism” value [2, 3] was 1 n, the “Grade 3 TRAE weight loss” value [2, 3] was 1 n and the “Cardiac toxicity observed (QTc prolongation)” value ([2]; 17 patients, event at 30 mg) was “one patient with a grade 1 QTc prolongation; also recorded: one patient who experienced a grade 1 QTc prolongation”. The “Anemia, treatment-related adverse event, All grades” value ([2]; N=17, 30-80 mg) was 10 n (%) and 10 (58.8%) n (%), the “Anemia, treatment-related adverse event, Grade 1–2” value ([2]; N=17, 30-80 mg) was 8 (47.1%) n (%) and the “Anemia, treatment-related adverse event, Grade 3–4” value ([2]; N=17, 30-80 mg) was 2 (11.8%) n (%). The “Anorexia, treatment-related adverse event, All grades” value ([2]; N=17, 30-80 mg) was 5 (29.4%) n (%), the “Anorexia, treatment-related adverse event, Grade 1–2” value ([2]; N=17, 30-80 mg) was 4 (23.5%) n (%) and the “Anorexia, treatment-related adverse event, Grade 3–4” value ([2]; N=17, 30-80 mg) was 1 (5.9%) n (%). For the same compound, the “Constipation, treatment-related adverse event, All grades” value ([2]; N=17, 30-80 mg) was 4 (23.5%) n (%), the “Constipation, treatment-related adverse event, Grade 1–2” value ([2]; N=17, 30-80 mg) was 4 (23.5%) n (%) and the “Cough, treatment-related adverse event, All grades” value ([2]; N=17, 30-80 mg) was 2 (11.8%) n (%). For the same compound, the “Cough, treatment-related adverse event, Grade 1–2” value ([2]; N=17, 30-80 mg) was 2 (11.8%) n (%), the “Dehydration, treatment-related adverse event, All grades” value ([2]; N=17, 30-80 mg) was 2 (11.8%) n (%) and the “Dehydration, treatment-related adverse event, Grade 1–2” value ([2]; N=17, 30-80 mg) was 2 (11.8%) n (%). The “Diarrhea, treatment-related adverse event, All grades” value ([2]; N=17, 30-80 mg) was 6 n (%) and 6 (35.3%) n (%), the “Diarrhea, treatment-related adverse event, Grade 1–2” value ([2]; N=17, 30-80 mg) was 6 (35.3%) n (%) and the “Dizziness, treatment-related adverse event, All grades” value ([2]; N=17, 30-80 mg) was 4 (23.5%) n (%). The “Dizziness, treatment-related adverse event, Grade 1–2” value ([2]; N=17, 30-80 mg) was 4 (23.5%) n (%), the “Dry mouth, treatment-related adverse event, All grades” value ([2]; N=17, 30-80 mg) was 3 (17.6%) n (%) and the “Dry mouth, treatment-related adverse event, Grade 1–2” value ([2]; N=17, 30-80 mg) was 3 (17.6%) n (%). For the same compound, the “Dysgeusia, treatment-related adverse event, All grades” value ([2]; N=17, 30-80 mg) was 3 (17.6%) n (%), the “Dysgeusia, treatment-related adverse event, Grade 1–2” value ([2]; N=17, 30-80 mg) was 3 (17.6%) n (%) and the “Elevated alkaline phosphatase, treatment-related adverse event, All grades” value ([2]; N=17, 30-80 mg) was 4 (23.5%) n (%). The “Elevated alkaline phosphatase, treatment-related adverse event, Grade 1–2” value ([2]; N=17, 30-80 mg) was 4 (23.5%) n (%), the “Elevated creatinine, treatment-related adverse event, All grades” value ([2]; N=17, 30-80 mg) was 8 n (%) and 8 (47.1%) n (%) and the “Elevated creatinine, treatment-related adverse event, Grade 1–2” value ([2]; N=17, 30-80 mg) was 8 (47.1%) n (%). The “Fatigue, treatment-related adverse event, All grades” value ([2]; N=17, 30-80 mg) was 11 (64.7%) n (%), the “Fatigue, treatment-related adverse event, Grade 1–2” value ([2]; N=17, 30-80 mg) was 11 (64.7%) n (%) and the “Headache, treatment-related adverse event, All grades” value ([2]; N=17, 30-80 mg) was 3 (17.6%) n (%). The “Headache, treatment-related adverse event, Grade 1–2” value ([2]; N=17, 30-80 mg) was 3 (17.6%) n (%), the “Hematuria, treatment-related adverse event, All grades” value ([2]; N=17, 30-80 mg) was 1 (5.9%) n (%) and the “Hematuria, treatment-related adverse event, Grade 3–4” value ([2]; N=17, 30-80 mg) was 1 (5.9%) n (%). The “Hypermagnesemia, treatment-related adverse event, All grades” value ([2]; N=17, 30-80 mg) was 2 (11.8%) n (%), the “Hypermagnesemia, treatment-related adverse event, Grade 1–2” value ([2]; N=17, 30-80 mg) was 2 (11.8%) n (%) and the “Hypernatremia, treatment-related adverse event, All grades” value ([2]; N=17, 30-80 mg) was 2 (11.8%) n (%). The “Hypernatremia, treatment-related adverse event, Grade 1–2” value ([2]; N=17, 30-80 mg) was 2 (11.8%) n (%), the “Hypersomnia, treatment-related adverse event, All grades” value ([2]; N=17, 30-80 mg) was 2 (11.8%) n (%) and the “Hypersomnia, treatment-related adverse event, Grade 1–2” value ([2]; N=17, 30-80 mg) was 2 (11.8%) n (%). The “Hypoalbuminemia, treatment-related adverse event, All grades” value ([2]; N=17, 30-80 mg) was 5 (29.4%) n (%), the “Hypoalbuminemia, treatment-related adverse event, Grade 1–2” value ([2]; N=17, 30-80 mg) was 5 (29.4%) n (%) and the “Hyponatremia, treatment-related adverse event, All grades” value ([2]; N=17, 30-80 mg) was 3 (17.6%) n (%). For the same compound, the “Hyponatremia, treatment-related adverse event, Grade 1–2” value ([2]; N=17, 30-80 mg) was 3 (17.6%) n (%), the “Hypophosphatemia, treatment-related adverse event, All grades” value ([2]; N=17, 30-80 mg) was 7 n (%) and 7 (41.2%) n (%) and the “Hypophosphatemia, treatment-related adverse event, Grade 1–2” value ([2]; N=17, 30-80 mg) was 4 (23.5%) n (%). The “Hypophosphatemia, treatment-related adverse event, Grade 3–4” value ([2]; N=17, 30-80 mg) was 3 (17.6%) n (%), the “Impaired concentration, treatment-related adverse event, All grades” value ([2]; N=17, 30-80 mg) was 3 (17.6%) n (%) and the “Impaired concentration, treatment-related adverse event, Grade 1–2” value ([2]; N=17, 30-80 mg) was 3 (17.6%) n (%). For the same compound, the “Leukopenia, treatment-related adverse event, All grades” value ([2]; N=17, 30-80 mg) was 8 n (%) and 8 (47.1%) n (%), the “Leukopenia, treatment-related adverse event, Grade 1–2” value ([2]; N=17, 30-80 mg) was 8 (47.1%) n (%) and the “Limb edema, treatment-related adverse event, All grades” value ([2]; N=17, 30-80 mg) was 2 (11.8%) n (%). For the same compound, the “Limb edema, treatment-related adverse event, Grade 1–2” value ([2]; N=17, 30-80 mg) was 2 (11.8%) n (%), the “Lymphopenia, treatment-related adverse event, All grades” value ([2]; N=17, 30-80 mg) was 7 n (%) and 7 (41.2%) n (%) and the “Lymphopenia, treatment-related adverse event, Grade 1–2” value ([2]; N=17, 30-80 mg) was 4 (23.5%) n (%). The “Lymphopenia, treatment-related adverse event, Grade 3–4” value ([2]; N=17, 30-80 mg) was 3 (17.6%) n (%), the “Myalgia, treatment-related adverse event, All grades” value ([2]; N=17, 30-80 mg) was 4 (23.5%) n (%) and the “Myalgia, treatment-related adverse event, Grade 1–2” value ([2]; N=17, 30-80 mg) was 4 (23.5%) n (%).
